# Reference: publication PMC3116189, “Novel Natural Inhibitors of CYP1A2 Identified by in Silico and in Vitro Screening” (International Journal of Molecular Sciences, 2011)
# Structures can show the parent of a compound that is named as a salt.
# Target: T1, CYP1A2 (Homo sapiens, UniProt P05177)
# T1 sequence (P05177 1-516): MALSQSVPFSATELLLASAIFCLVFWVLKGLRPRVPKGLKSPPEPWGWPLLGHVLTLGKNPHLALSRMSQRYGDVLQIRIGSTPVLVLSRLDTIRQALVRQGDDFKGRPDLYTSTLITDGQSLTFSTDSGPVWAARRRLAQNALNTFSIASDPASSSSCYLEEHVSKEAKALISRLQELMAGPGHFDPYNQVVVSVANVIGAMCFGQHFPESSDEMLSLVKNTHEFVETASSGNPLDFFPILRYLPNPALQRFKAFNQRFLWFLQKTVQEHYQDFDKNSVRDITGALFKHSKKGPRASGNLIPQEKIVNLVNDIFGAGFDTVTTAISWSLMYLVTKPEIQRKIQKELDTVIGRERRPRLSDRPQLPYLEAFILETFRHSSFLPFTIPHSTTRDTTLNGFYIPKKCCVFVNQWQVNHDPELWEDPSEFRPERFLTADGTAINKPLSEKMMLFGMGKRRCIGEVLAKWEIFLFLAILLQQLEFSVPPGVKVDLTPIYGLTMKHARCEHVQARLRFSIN
# Assay: in vitro
# Type: biochemical
# Conditions: 1 μM active ingredient, Rh CYP1A2-mediated phenacetin O-deethylation, test dataset of 202 herb ingredients
# 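Also: recombinant CYP1A2 incubated for 1 h at 37 °C, with the reaction started by an NADPH-generating system.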
row,Molecule,% of Control Indication Activity (Mean)
1,C[C@@H]1O[C@@H](O[C@@H]2[C@@H](O)[C@H](O)[C@@H](CO)O[C@H]2c2c(O)cc(O)c3c(=O)cc(-c4ccc(O)cc4)oc23)[C@H](O)[C@H](O)[C@H]1O [Vitexin rhamnoside],> 90%
2,COc1cc2c(cc1O)CC[n+]1cc3c(OC)c(OC)ccc3cc1-2.[Cl-] [Jatrorrhizine Hydrochloride],> 90%
3,C[C@H]1CC[C@@]2(O)C(C)(C)[C@@H]3CC[C@@]2(C)[C@H]1C3 [Patchouli alcohol],> 90%
4,Astragaloside,> 90%
5,Rhodiosin,> 90%
6,CC(=O)O[C@H]1C[C@]2(O)[C@@H]3CC[C@@H]4C[C@@H](O)CC[C@]4(C)[C@H]3CC[C@]2(C)[C@H]1c1ccc(=O)oc1 [Bufatalin],> 90%
7,Pinoresinol diglucoside,> 90%
8,COc1ccc(-c2oc3c(CC=C(C)C)c(O[C@@H]4O[C@H](CO)[C@@H](O)[C@H](O)[C@H]4O)cc(O)c3c(=O)c2O)cc1 [Icariside I],> 90%
9,Lobetyolin,> 90%
10,Oc1cc(O)c2c(c1)O[C@H](c1ccc(O)c(O)c1)[C@@H](O)C2 [(+)-Catechin],> 90%
11,COc1cc(/C=C/C(=O)O)ccc1O [Ferulic acid],> 90%
12,CCOC(=O)/C=C/c1ccc(O)c(O)c1 [Caffeic acid ethyl ester],> 90%
13,C[C@@H]1CCCCCCCCCCCCC(=O)C1 [Muscone],> 90%
14,CC(C)=CCC[C@](C)(O[C@@H]1O[C@H](CO)[C@@H](O)[C@H](O)[C@H]1O)[C@H]1CC[C@]2(C)[C@@H]1[C@H](O)C[C@@H]1[C@@]3(C)CC[C@H](O)C(C)(C)[C@@H]3[C@@H](O[C@@H]3O[C@H](CO)[C@@H](O)[C@H](O)[C@H]3O[C@@H]3OC[C@@H](O)[C@H](O)[C@H]3O)C[C@]12C [Notoginsenoside R1],> 90%

# Same assay, conditions: human, recombinant enzyme, pH 7.4
row,Molecule,"activity at 1 h, 1 μM"
1,COc1cc(/C=C/CO)cc(OC)c1O[C@@H]1O[C@H](CO)[C@@H](O)[C@H](O)[C@H]1O [Syringin],> 90%
2,O=C(O)[C@H]1O[C@@H](Oc2cc3oc(-c4ccccc4)cc(=O)c3c(O)c2O)[C@H](O)[C@@H](O)[C@@H]1O [Baicalin],> 90%
3,O=c1c(-c2ccc(O)cc2)coc2cc(O)ccc12 [Daidzein],> 90%
4,C[C@@H]1O[C@@H](OC[C@H]2O[C@@H](Oc3c(-c4ccc(O)c(O)c4)oc4cc(O)cc(O)c4c3=O)[C@H](O)[C@@H](O)[C@@H]2O)[C@H](O)[C@H](O)[C@H]1O [Rutin],> 90%
5,O=c1c(-c2ccc(O)cc2)coc2c([C@@H]3O[C@H](CO)[C@@H](O)[C@H](O)[C@H]3O)c(O)ccc12 [Puerarin],> 90%

# Now from value to molecule:
row,"activity at 1 h, 1 μM",Molecule
1,> 90%,C[C@@H]1O[C@@H](O[C@H]2[C@H](Oc3cc(O)c4c(c3)O[C@H](c3ccc(O)cc3)CC4=O)O[C@H](CO)[C@@H](O)[C@@H]2O)[C@H](O)[C@H](O)[C@H]1O [Naringin]
2,33.6%,C=CCc1ccc(O)c(-c2ccc(O)c(CC=C)c2)c1 [Honokiol]
3,> 90%,COc1cc(C(=O)O[C@H]2[C@@H]3C=CO[C@@H](O[C@@H]4O[C@H](CO)[C@@H](O)[C@H](O)[C@H]4O)[C@@H]3[C@@]3(CO)O[C@@H]23)ccc1O [Picroside-II]
4,4.6%,O=c1cc(-c2ccccc2)oc2cc(O)cc(O)c12 [Chrysin]
5,> 90%,C[C@H]1O[C@@H](O[C@H]2CC[C@@]3(C)[C@@H](CC[C@]4(C)[C@@H]3C=C[C@]35OC[C@@]6(CCC(C)(C)C[C@H]63)[C@@H](O)C[C@]54C)[C@]2(C)CO)[C@H](O)[C@@H](O[C@@H]2O[C@H](CO)[C@@H](O)[C@H](O)[C@H]2O)[C@H]1O [Saikosaponin A]
6,77.7%,Cc1cc(O)c2c(c1)C(=O)c1cccc(O)c1C2=O [Chrysophanol]
7,> 90%,COc1cc(C2Oc3cc([C@H]4Oc5cc(O)cc(O)c5C(=O)[C@@H]4O)ccc3OC2CO)ccc1O (stereo partly drawn) [Silibinin]
8,> 90%,O=c1c2ccccc2nc2n1CCc1c-2[nH]c2ccccc12 [Rutaecarpine]
9,> 90%,"O=Cc1ccc(O)c(O)c1 [3,4-Dihydroxybenzaldehyde]"

# Same assay, conditions: human, recombinant human CYP1A2, pH 7.4, probe phenacetin (25 μM), O-deethylation to acetaminophen; 1 μM active ingredient, Rh CYP1A2-mediated phenacetin O-deethylation, test dataset of 202 herb ingredients; read-out: % of Control Indication Activity (Mean)
row,"activity at 1 h, 1 μM",Molecule
1,> 90%,Cc1ccc(C(C)C)c(O)c1 [Thymol]
2,> 90%,OC[C@H]1O[C@@H](Oc2cc(O)cc(/C=C/c3ccc(O)cc3)c2)[C@H](O)[C@@H](O)[C@@H]1O [Polydatin]
3,> 90%,COc1cc(/C=C/C(=O)CC(=O)/C=C/c2ccc(O)c(OC)c2)ccc1O [Curcumin]
4,> 90%,O=C1c2c(O)cccc2C([C@@H]2O[C@H](CO)[C@@H](O)[C@H](O)[C@H]2O)c2cc(CO)cc(O)c21 (stereo partly drawn) [Bar baloin]
5,> 90%,COc1cc2c(c(OC)c1OC)-c1c(cc(OC)c(OC)c1OC)C[C@](C)(O)[C@@H](C)C2 [Schizandrin]
6,> 90%,CC(=O)OC1CC2CCC1(C)C2(C)C (stereo not drawn) [Bornylacetate]
7,> 90%,C[C@]1(OC(=O)/C=C/c2ccccc2)C[C@@H](O)[C@]2(O)C=CO[C@@H](O[C@@H]3O[C@H](CO)[C@@H](O)[C@H](O)[C@H]3O)[C@@H]21 [Harpagoside]
8,> 90%,O=C(O)c1cc(O)c2c(c1)C(=O)c1cccc(O)c1C2=O [Rhein]
9,> 90%,C=C1CC[C@@H]2[C@](C)(CO)[C@H](O)CC[C@@]2(C)[C@@H]1C/C=C1/C(=O)OC[C@H]1O [Andrographolide]
10,> 90%,O=C(/C=C/c1ccc(O)c(O)c1)O[C@@H]1C[C@](O)(C(=O)O)C[C@@H](O)[C@H]1O [Chlorogenic acid]
11,> 90%,CC(C)=CCC[C@](C)(O[C@@H]1O[C@H](CO)[C@@H](O)[C@H](O)[C@H]1O)[C@H]1CC[C@]2(C)[C@@H]1[C@H](O)C[C@@H]1[C@@]3(C)CC[C@H](O)C(C)(C)[C@@H]3[C@@H](O[C@@H]3O[C@H](CO)[C@@H](O)[C@H](O)[C@H]3O)C[C@]12C [Ginsenoside Rg1]
12,> 90%,COc1ccc(-c2cc(=O)c3c(O)c(OC)c(O[C@@H]4O[C@H](CO[C@@H]5O[C@@H](C)[C@H](O)[C@@H](O)[C@H]5O)[C@@H](O)[C@H](O)[C@H]4O)cc3o2)cc1 [Pectolinarin]
13,> 90%,COc1c(O)cc2c(c1O)[C@@H]1O[C@H](CO)[C@@H](O)[C@H](O)[C@H]1OC2=O [Bergenin]
14,> 90%,COc1cc(O)c2c(c1)C(=O)c1cc(C)cc(O)c1C2=O [Physcion]
15,> 90%,CC1=C2C(=O)O[C@@H](c3ccoc3)[C@]2(C)CCC1 [Fraxinellone]

# Same assay, conditions: human, recombinant human CYP1A2, pH 7.4, probe phenacetin (25 μM), O-deethylation to acetaminophen; 1 μM test compound, 25 μM phenacetin, average of duplicate determinations; read-out: % of Control Indication Activity
row,"activity at 1 h, 1 μM",Molecule
1,> 90%,"COc1cc(O)c2c(=O)c(O[C@@H]3O[C@H](CO)[C@H](O)[C@H](O)[C@H]3O)c(-c3ccc(O)c(O)c3)oc2c1 [zhang 83, rhamnetin 3-O-β-D-galactopyranoside]"
2,> 90%,"COc1ccc(-c2oc3cc(O)cc(O)c3c(=O)c2OC)cc1OC [zhang 759, 3,3′,4′-Tri-Me ether-3,3′,4′,5,7-Pentahydroxyflavone]"

# Same assay, conditions: recombinant enzyme
row,Molecule,% of Control Indication Activity (Mean)
1,COc1ccc([C@@H]2CC(=O)c3c(O)cc(O[C@@H]4O[C@H](CO[C@@H]5O[C@@H](C)[C@H](O)[C@@H](O)[C@H]5O)[C@@H](O)[C@H](O)[C@H]4O)cc3O2)cc1O [Hesperidin],> 90
2,COc1cc2c(cc1OC)-c1cc3ccc(OC)c(OC)c3c[n+]1CC2.[Cl-] [Palmatine Hydrochloride],> 90
3,COc1cc2ccc(=O)oc2c(OC)c1O [Isofraxidin],> 90

# Same assay, conditions: recombinant enzyme, pH 7.4
row,Molecule,activity
1,CN1[C@@H]2C[C@@H](OC(=O)[C@H](CO)c3ccccc3)C[C@H]1[C@@H]1O[C@@H]12 [Scopolamine Hydrobromide],> 90%

# Same assay, conditions: recombinant enzyme, pH 7.4; 1 μM active ingredient, Rh CYP1A2-mediated phenacetin O-deethylation, test dataset of 202 herb ingredients; read-out: % of Control Indication Activity (Mean)
Molecule,"activity at 1 h, 1 μM",activity
O=c1ccc2ccc3occc3c2o1 [Isopsoralen],> 90%,
COc1cc(-c2oc3cc(O)cc(O)c3c(=O)c2O)ccc1O [Isorhamnetin],,> 90%
C=CCc1ccc(O)c(-c2cc(CC=C)ccc2O)c1 [Magnolol],,> 90%
c1cc2c(cc1[C@H]1OC[C@H]3[C@@H]1CO[C@@H]3c1ccc3c(c1)OCO3)OCO2 [Sesamin],,> 90%
O=C1CCC[C@@H]2[C@H]3CCCN4CCC[C@@H](CN12)[C@@H]34 [Matrine],,> 90%
C[C@H]1CC[C@@]2(OC1)O[C@H]1C[C@H]3[C@@H]4CC[C@@H]5C[C@@H](O)CC[C@]5(C)[C@H]4CC[C@]3(C)[C@H]1[C@@H]2C [Sarsasapogenin],,> 90%

# Continued, in another order:
"activity at 1 h, 1 μM",Molecule,activity
10.8%,O=c1ccc2cc3ccoc3cc2o1 [Psoralen],
> 90%,O=C(/C=C/C=C/c1ccc2c(c1)OCO2)N1CCCCC1 [Piperine],
